Assay [1] concerns Eco. Type of assay: cell-based, Escherichia coli.
The test system of assay [2] is Rs. Type of assay: cell-based, Ralstonia solanacearum. To be noted: crude peptide, 5 μl of 64 μg/ml in 20 μl, bacteria OD600=0.4 in water, 2 h, confocal microscopy.
For assay [3], the system named is Pectobacterium carotovorum subsp. carotovorum (Pcc). In words: Plant disease response, Pcc infection of tomato L390 leaves. Format: in vivo, Solanum lycopersicum. To be noted: crude peptide 16 μg/ml mixed with Pcc, detached wounded tomato L390 leaves, 16–28 h post-inoculation, vs water.
The test system is the same in assay [4]. In words: Plant disease response, Pcc infection of Arabidopsis Col0 leaves. Format: in vivo, Arabidopsis thaliana. Conditions: crude peptide 16 μg/ml mixed with Pcc, wounded leaves of Arabidopsis Col0, 16–28 h post-inoculation, vs water.
Assay [5] relates to Botrytis cinerea (Bc). In words: Plant disease response, Bc infection of tomato L390 leaves. Type of assay: in vivo, Solanum lycopersicum. Conditions: crude peptide 16 μg/ml mixed with Bc spores (10^4 spores/ml), 47–70 h post-inoculation, vs water.
Assay [6] has as its system Botrytis cinerea (Bc). Put plainly: Plant disease response, Bc infection of Arabidopsis Col0 leaves. Format: in vivo, Arabidopsis thaliana. Conditions: crude peptide 16 μg/ml mixed with Bc spores (10^5 spores/ml), Arabidopsis Col0 leaves, 47–70 h post-inoculation, vs water.
Assay [7] relates to Pcc. Conditions: up to 32 μg/ml.
For assay [8], the system named is Ech. To be noted: up to 32 μg/ml.
Assay [9] relates to Rs Pss4. Conditions: Table 5, minimal medium, crude peptides, up to 32 μg/ml; for MIC: 96 h; for MBC/MFC: spotted on rich agar 48 h.
Assay [10] has as its system Rs Pss190. To be noted: Table 5, minimal medium, crude peptides, up to 32 μg/ml; for MIC: 96 h; for MBC/MFC: spotted on rich agar 48 h.
For assay [11], the system named is Bc. Conditions: up to 32 μg/ml; for MIC: spores, 96 h; for MBC/MFC / MFC: spotted on PD plate 24~72 h.
The subject of assay [12] is Cgl FST02. To be noted: up to 32 μg/ml; for MIC: spores, 96 h; for MBC/MFC / MFC: spotted on PD plate 24~72 h.
Assay [13] relates to Eco DH5α. Conditions: 48 h.
Assay [14] deals with Eco DH5α. Conditions: DH5α, 24 h.
The test system of assay [15] is Xev Xvt28. To be noted: 24 h.
[16] abbreviates: Table 5, minimal medium, crude peptides, 96 h.
Setting [17] is: Table 5, minimal medium, crude peptides, spotted on rich agar 48 h.
Where [18] appears, read: Table 5, minimal (CD) medium, crude peptides.
Setting [19] is: Table 7, rich media, spotted on rich agar 48 h.

In brackets after ≈: the same amount, converted by molar mass. Read-outs that look alike come from different tables or passages of the source. Where a SMILES comes first, the peptide text is derived from it. The star is where a group is joined. Palmitoyl = CCCCCCCCCCCCCCCC(=O)*; Myristoyl = CCCCCCCCCCCCCC(=O)*

With `CCCCCCCCCCCCCC(=O)N[C@@H](Cc1c[nH]c2ccccc12)C(=O)N[C@@H](CCCCN)C(=O)N[C@@H](CCCCN)C(=O)N[C@@H](CC(C)C)C(=O)N[C@@H](CCCCN)C(=O)N[C@@H](CCCCN)C(=O)N[C@@H](CC(C)C)C(=O)N[C@@H](CC(C)C)C(=O)N[C@@H](CCCCN)C(=O)N[C@@H](CCCCN)C(=O)N[C@@H](CC(C)C)C(=O)N[C@@H](CCCCN)C(=O)N[C@@H](CCCCN)C(=O)N[C@@H](CC(C)C)C(N)=O` [pepD2M] (Myristoyl-WKKLKKLLKKLKKL-NH2), the “membranolytic effect (SYTOX Green staining)” value in assay [1] and in assay [2] was “significant membranolytic effect” each time. The “size of disease lesions caused by Pcc, tomato” value in [3] is on record as “significantly reduced the sizes of the disease lesions”. In addition, the “size of disease lesions caused by Pcc, Arabidopsis” value in [4] is listed as “significantly reduced the sizes of the disease lesions”. Further, in assay [5], the “development of the lesion caused by Bc, tomato” value is given as “decreased the development of the lesion”. Besides, in assay [6], the “development of the lesion caused by Bc, Arabidopsis” value is listed as “decreased the development of the lesion”. The MIC in assay [7] (setting [16]) is 4 µg/mL (≈ 2 µM); in [8] (setting [16]) it was 4 µg/mL (≈ 2 µM); in assay [9] it was 8 µg/mL (≈ 3.99 µM); in [10] it was 8 µg/mL (≈ 3.99 µM); in assay [11] (setting [18]), 16 µg/mL (≈ 7.98 µM); in [11] (Table 6, minimal media), 16 µg/mL (≈ 7.98 µM). In addition, the MIC was 8 µg/mL (≈ 3.99 µM) in assay [12] (setting [18]) and 16 µg/mL (≈ 7.98 µM) in [12] (Table 6, minimal media). Also, the MBC/MFC in [7] (setting [17]) worked out at 4 µg/mL (≈ 2 µM); in assay [8] (setting [17]) it was 8 µg/mL (≈ 3.99 µM); in [9], 8 µg/mL (≈ 3.99 µM); in assay [10] it was 8 µg/mL (≈ 3.99 µM); in assay [11] (setting [18]), 16 µg/mL (≈ 7.98 µM); in [12] (setting [18]) it was 16 µg/mL (≈ 7.98 µM). Further, the MFC is 32 µg/mL (≈ 16 µM) in [11] (Table 6, minimal media) and 16 µg/mL (≈ 7.98 µM) in [12] (Table 6, minimal media).
Regarding `CCCCCCCCCCCCCCCC(=O)N[C@@H](Cc1c[nH]c2ccccc12)C(=O)N[C@@H](CCCCN)C(=O)N[C@@H](CCCCN)C(=O)N[C@@H](CC(C)C)C(=O)N[C@@H](CCCCN)C(=O)N[C@@H](CCCCN)C(=O)N[C@@H](CC(C)C)C(=O)N[C@@H](CC(C)C)C(=O)N[C@@H](CCCCN)C(=O)N[C@@H](CCCCN)C(=O)N[C@@H](CC(C)C)C(=O)N[C@@H](CCCCN)C(=O)N[C@@H](CCCCN)C(=O)N[C@@H](CC(C)C)C(N)=O` [pepD2P] (Palmitoyl-WKKLKKLLKKLKKL-NH2), in assay [11] (Table 6, minimal media), the MIC is 8 µg/mL (≈ 3.94 µM) and the MFC worked out at 8 µg/mL (≈ 3.94 µM). In assay [12] (Table 6, minimal media), the MIC turned out to be 8 µg/mL (≈ 3.94 µM) and the MFC came to 8 µg/mL (≈ 3.94 µM).
For `CCCCCCCCCCCCCC(=O)N[C@@H](Cc1c[nH]c2ccccc12)C(=O)N[C@@H](CCCCN)C(=O)N[C@@H](CCCCN)C(=O)N[C@@H](CC(C)C)C(=O)N[C@@H](CCCCN)C(=O)N[C@@H](CCCCN)C(=O)N[C@@H](CC(C)C)C(=O)N[C@@H](CC(C)C)C(=O)N[C@@H](CCCCN)C(=O)N[C@@H](CCCCN)C(=O)N[C@@H](CC(C)C)C(N)=O` [pepD3M] (Myristoyl-WKKLKKLLKKL-NH2), in assay [3], the “size of disease lesions caused by Pcc, tomato” value was “significantly reduced the sizes of the disease lesions”. Moreover, in assay [4], the “size of disease lesions caused by Pcc, Arabidopsis” value is “significantly reduced the sizes of the disease lesions”. For the same compound, the “development of the lesion caused by Bc, tomato” value in assay [5] was “decreased the development of the lesion”. Also, the “development of the lesion caused by Bc, Arabidopsis” value in assay [6] is reported as “decreased the development of the lesion”. Besides, the MIC in [7] (setting [16]) was 4 µg/mL (≈ 2.45 µM); in assay [8] (setting [16]), 4 µg/mL (≈ 2.45 µM); in assay [9], 8 µg/mL (≈ 4.89 µM); in [10], 16 µg/mL (≈ 9.78 µM); in [11] (setting [18]), 4 µg/mL (≈ 2.45 µM); in assay [12] (setting [18]) it was 8 µg/mL (≈ 4.89 µM). Moreover, the MBC/MFC stood at 4 µg/mL (≈ 2.45 µM) in [7] (setting [17]); 8 µg/mL (≈ 4.89 µM) in [8] (setting [17]); 16 µg/mL (≈ 9.78 µM) in assay [9]; 16 µg/mL (≈ 9.78 µM) in assay [10]; 8 µg/mL (≈ 4.89 µM) in assay [11] (setting [18]); 8 µg/mL (≈ 4.89 µM) in assay [12] (setting [18]).
As to Ac-WKKIKKIIKKIKKI-NH2 [pepI2], in assay [13], the MBC is 4 µg/mL and the minimum inhibitory concentration (MIC) is 4 µg/mL.
For the compound Ac-WKKVKKVVKKVKKV-NH2 [pepV2], the values for the MBC in assay [13], in [7] (setting [19]) and in assay [8] (setting [19]) were 32 µg/mL, “– (“–” indicates that no antimicrobial activity was detected in rich media at the highest peptide concentration (32μg/ml) that was tested in this study.)” and “– (“–” indicates that no antimicrobial activity was detected in rich media at the highest peptide concentration (32μg/ml) that was tested in this study.)”, respectively. Also, the MIC was 32 µg/mL in assay [13]; “– (“–” indicates that no antimicrobial activity was detected in rich media at the highest peptide concentration (32μg/ml) that was tested in this study.)” in assay [7] (Table 7, rich media, 48 h); “– (“–” indicates that no antimicrobial activity was detected in rich media at the highest peptide concentration (32μg/ml) that was tested in this study.)” in assay [8] (Table 7, rich media, 48 h).
As to Ac-WKLKLKLKLKLKLKLKLK-NH2 [pepE], the results for the concentration for half-maximal inhibition (IC50) in assay [14] and in assay [15] were 10 µg/mL and 2 µg/mL, respectively.
As for Ac-WKLLKKLLKKLKKLLKKL-NH2 [pepC], the IC50 in assay [14] and in assay [15] was 10 µg/mL in each case.
Consider Stearyl-WKKLKKLLKKLKKL-NH2 [pepD2S], for which, in [11] (Table 6, minimal media), the minimal inhibitory concentration (MIC) entry was “– (“–” indicates that no antimicrobial activity was detected in minimal media at the highest peptide concentration (32μg/ml) that was tested in this study.)” and the MFC entry is given as “– (“–” indicates that no antimicrobial activity was detected in minimal media at the highest peptide concentration (32μg/ml) that was tested in this study.)”. Moreover, in assay [12] (Table 6, minimal media), the MIC entry is reported as “– (“–” indicates that no antimicrobial activity was detected in minimal media at the highest peptide concentration (32μg/ml) that was tested in this study.)” and the MFC entry was “– (“–” indicates that no antimicrobial activity was detected in minimal media at the highest peptide concentration (32μg/ml) that was tested in this study.)”.

The values are drawn from PMC8514817, “De Novo Design of Antimicrobial Peptides With a Special Charge Pattern and Their Application in Combating Plant Pathogens” (Frontiers in Plant Science, 2021).
